Laboratory results as given in patent US20240091366A1, “NOVEL ACID-SENSITIVE APTAMER TRIPTOLIDE CONJUGATE AND APPLICATIONS” (priority 2022, published 2024).
Several values for one entry are separate records, joined by “and”; a condition that tells them apart may be missing. Equal values may be shown once.

What was measured:
Assay in all cases: MTT assay, cell proliferation inhibition
Type in all cases: cell-based
[1] = tested on: hepatocellular carcinoma cell line HepG2; conditions: 48 h
Source text: (§1) Material: aptamer triptolide conjugate (AS1411-TP). Triptolide (TP) was provided by Shanghai Yaji Biotechnology Co. Ltd; aptamer (AS1411) was obtained from Chengdu Pilot Drug Development Co. Ltd; trypsin, thiazolyl blue (MTT) (Biofroxx, Germany); dimethyl sulfoxide (DMSO) (MP Biomedicals, France); fetal bovine serum (FBS) (Newzerum, New Zealand); DMEM medium, RPMI1640 medium, Petri dishes, 96-well plates (Corning, USA); colon cancer cells HCT116, breast cancer cells MDA-MB-231, non-small-cell lung cancer cells A549, pancreatic cancer cells PANC-1, and hepatocellular carcinoma cells HepG2 were purchased from the Shanghai Cell Bank of the Chinese Academy of Sciences and preserved in the laboratory.
(§2) Take the tumor cells HCT116, MDA-MB-231, A549, PANC-1 and HepG2 cell lines from the liquid nitrogen tank, place them in a 37° C. water bath, wait for the frozen cells to melt into cell suspension, centrifuge the cells at 1000 r/min for 3 min, discard the supernatant, add 1 ml of fresh complete medium containing 10% fetal bovine serum and 1% double antibody to mix the cells, then add 5 ml of medium, gently and repeatedly blowing the cells with a pipette gun to make them mix well. Then add 5 ml of medium, blow the cells gently and repeatedly with a pipette gun to mix them well, and finally transfer the cell suspension to a […] and label the cell name, cell number, date of resuscitation and the operator's name, and place it in a cell culture incubator for cultivation. (HCT116, PANC-1 and HepG2 cell lines were cultured in DMEM medium, while MDA-MB-231 cell line and A549 cell line were cultured in RPMI1640 medium).
(§3) Take HCT116, MDA-MB-231, A549, PANC-1, HepG2 cells with good growth status, remove the medium, add 1 ml of sterile PBS to wash, add 1.5 ml of trypsin to digest the cells, about 2 min later the cells become round and fall off, add 1.5 ml of medium to terminate the digestion, transfer it to centrifugal tube, centrifuge at 1000 r/min for 3 min, discard the supernatant, add 1 ml of fresh medium to resuspend, then add fresh medium for 1:3 distribution to other culture dishes, and label the date of transmission and the number of generations. Place in the cell culture incubator for cultivation.
(§4) Take HCT116, MDA-MB-231, A549, PANC-1, HepG2 cells with good growth status, by the same operation as the cell passaging experiment, after cell resuspension, cell counting with hemocyte counting plate, with 2500 cells/well, plant in 96-well plate, after 24 h of cell culture, remove the original medium, add medium containing different concentrations of drugs and continue to cultivate for 48 hours. After 24 h of cell culture, the original medium was removed and the medium containing different concentrations of drugs was added to continue the culture for 48 hours. […] The above steps were repeated three times.

[2] = tested on: pancreatic cancer cell line PANC-1; conditions: 48 h
Source text: as §1, §2, §3, §4

[3] = tested on: colon cancer cell line HCT116; conditions: 48 h, samples 1-3
Source text: as §1, §2, §3, §4

CC(C)[C@]12O[C@H]1[C@@H]1O[C@]13[C@]1(O[C@H]1C[C@H]1C4=C(CC[C@@]13C)C(=O)OC4)[C@@H]2O [TP, Triptolide]
cell proliferation inhibition rate ([1]; HepG2, 3.1 nM, samples 1-3, 0.0031 µM): 28.7555 and 29.2302 | cell proliferation inhibition rate ([1]; HepG2, 6.3 nM, samples 1-3, 0.0063 µM): 39.8542 and 49.5151 | cell proliferation inhibition rate ([1]; HepG2, 12.5 nM, samples 1-3, 0.0125 µM): 51.8210 and 55.5307 | cell proliferation inhibition rate ([1]; HepG2, 25.0 nM, samples 1-3, 0.025 µM): 66.7752 and 69.1489 | cell proliferation inhibition rate ([1]; HepG2, 50.0 nM, samples 1-3, 0.05 µM): 79.9729 and 77.1075 | cell proliferation inhibition rate ([1]; HepG2, 100.0 nM, samples 1-3, 0.1 µM): 88.3181 and 85.8901 | cell proliferation inhibition rate ([1]; HepG2, 200.0 nM, samples 1-3, 0.2 µM): 99.2815 and 99.0448 | inhibition at 0.0031 µM ([1]; Homo sapiens, HepG2, 48 h, HepG2, 3.1 nM, samples 1-3, read-out: cell proliferation inhibition rate): 29% | inhibition at 0.0063 µM ([1]; Homo sapiens, HepG2, 48 h, HepG2, 6.3 nM, samples 1-3, read-out: cell proliferation inhibition rate): 39.7% | inhibition at 0.0125 µM ([1]; Homo sapiens, HepG2, 48 h, HepG2, 12.5 nM, samples 1-3, read-out: cell proliferation inhibition rate): 48.7% | inhibition at 0.025 µM ([1]; Homo sapiens, HepG2, 48 h, HepG2, 25.0 nM, samples 1-3, read-out: cell proliferation inhibition rate): 68% | inhibition at 0.05 µM ([1]; Homo sapiens, HepG2, 48 h, HepG2, 50.0 nM, samples 1-3, read-out: cell proliferation inhibition rate): 78.5% | inhibition at 0.1 µM ([1]; Homo sapiens, HepG2, 48 h, HepG2, 100.0 nM, samples 1-3, read-out: cell proliferation inhibition rate): 88.2% | inhibition at 0.2 µM ([1]; Homo sapiens, HepG2, 48 h, HepG2, 200.0 nM, samples 1-3, read-out: cell proliferation inhibition rate): 95.2% | IC50 ([1]; Homo sapiens, hepatocellular carcinoma cells HepG2, MTT): 10.5 ± 0.33 nM | inhibition at 0.0031 µM ([2]; Homo sapiens, PANC-1, 48 h, PANC-1, 3.1 nM, samples 1-3, read-out: cell proliferation inhibition rate): 31.2% | inhibition at 0.0063 µM ([2]; Homo sapiens, PANC-1, 48 h, PANC-1, 6.3 nM, samples 1-3, read-out: cell proliferation inhibition rate): 36% | inhibition at 0.0125 µM ([2]; Homo sapiens, PANC-1, 48 h, PANC-1, 12.5 nM, samples 1-3, read-out: cell proliferation inhibition rate): 49.2% | inhibition at 0.025 µM ([2]; Homo sapiens, PANC-1, 48 h, PANC-1, 25.0 nM, samples 1-3, read-out: cell proliferation inhibition rate): 59% | inhibition at 0.05 µM ([2]; Homo sapiens, PANC-1, 48 h, PANC-1, 50.0 nM, samples 1-3, read-out: cell proliferation inhibition rate): 64.8% | inhibition at 0.1 µM ([2]; Homo sapiens, PANC-1, 48 h, PANC-1, 100.0 nM, samples 1-3, read-out: cell proliferation inhibition rate): 80.3% | inhibition at 0.2 µM ([2]; Homo sapiens, PANC-1, 48 h, PANC-1, 200.0 nM, samples 1-3, read-out: cell proliferation inhibition rate): 93% | IC50 ([2]; Homo sapiens, pancreatic cancer cells PANC-1, MTT): 14.4 ± 0.09 nM | cell proliferation inhibition rate ([2]; PANC-1, 3.1 nM, samples 1-3, 0.0031 µM): 30.2815 and 32.0448 | cell proliferation inhibition rate ([2]; PANC-1, 6.3 nM, samples 1-3, 0.0063 µM): 37.1753 and 34.7338 | cell proliferation inhibition rate ([2]; PANC-1, 12.5 nM, samples 1-3, 0.0125 µM): 47.8196 and 50.5663 | cell proliferation inhibition rate ([2]; PANC-1, 25.0 nM, samples 1-3, 0.025 µM): 58.7555 and 59.2302 | cell proliferation inhibition rate ([2]; PANC-1, 50.0 nM, samples 1-3, 0.05 µM): 65.1441 and 74.5337 | cell proliferation inhibition rate ([2]; PANC-1, 100.0 nM, samples 1-3, 0.1 µM): 81.0105 and 79.6202 | cell proliferation inhibition rate ([2]; PANC-1, 200.0 nM, samples 1-3, 0.2 µM): 98.8589 and 97.2313 | cell proliferation inhibition rate ([3]; HCT116, 6.3 nM, 0.0063 µM): 20.0440 and 13.1188 | cell proliferation inhibition rate ([3]; HCT116, 12.5 nM, 0.0125 µM): 43.4099 and 47.0957 | cell proliferation inhibition rate ([3]; HCT116, 25.0 nM, 0.025 µM): 66.2973 and 50.7426 | cell proliferation inhibition rate ([3]; HCT116, 50.0 nM, 0.05 µM): 79.2127 and 76.2156 | cell proliferation inhibition rate ([3]; HCT116, 100.0 nM, 0.1 µM): 80.3075 and 88.8251 | cell proliferation inhibition rate ([3]; HCT116, 200.0 nM, 0.2 µM): 98.8058 and 98.5677
